Our source for the EC50 values is US12577206B2 (BRISTOL-MYERS SQUIBB COMPANY, priority 2020, dated 2026).

What is called EC50 is the midpoint of the concentration-response curve.

A value given as a limit tells only on which side of the number the result lay.

One test addresses T1, human FPR2 (Homo sapiens, UniProt P25090).
T1 sequence (P25090 1-351): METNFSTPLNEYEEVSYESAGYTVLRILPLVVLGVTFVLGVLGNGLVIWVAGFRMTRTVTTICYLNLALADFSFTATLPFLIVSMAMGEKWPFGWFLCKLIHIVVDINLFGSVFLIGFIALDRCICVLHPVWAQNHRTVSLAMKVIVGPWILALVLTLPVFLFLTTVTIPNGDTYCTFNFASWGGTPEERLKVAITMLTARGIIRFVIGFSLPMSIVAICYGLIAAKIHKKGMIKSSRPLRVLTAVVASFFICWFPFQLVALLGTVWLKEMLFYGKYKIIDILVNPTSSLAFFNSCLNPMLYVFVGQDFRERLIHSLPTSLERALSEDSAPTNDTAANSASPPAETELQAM
Put plainly: FPR2 cyclic adenosine monophosphate (cAMP) assay. Type of test: cell-based. To be noted: CHO cells overexpressing human FPR2; forskolin 5 μM; inhibition of cAMP production; HTRF; read-out: hFPR2 cAMP2 EC50. An outline of the steps:
(§1)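 Gi-coupled activity is read as suppression of forskolin-stimulated cAMP (10 μM final for FPR1, 5 μM final for FPR2; IBMX 200 μM final) in recombinant CHO cells, 30 min incubation at rt, HTRF detection.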
In general terms: Cyclic AMP is a second messenger, typically raised through Gs and lowered through Gi signalling.

The next test deals with T2, human FPR1 (Homo sapiens, UniProt P21462).
T2 sequence (P21462 1-350): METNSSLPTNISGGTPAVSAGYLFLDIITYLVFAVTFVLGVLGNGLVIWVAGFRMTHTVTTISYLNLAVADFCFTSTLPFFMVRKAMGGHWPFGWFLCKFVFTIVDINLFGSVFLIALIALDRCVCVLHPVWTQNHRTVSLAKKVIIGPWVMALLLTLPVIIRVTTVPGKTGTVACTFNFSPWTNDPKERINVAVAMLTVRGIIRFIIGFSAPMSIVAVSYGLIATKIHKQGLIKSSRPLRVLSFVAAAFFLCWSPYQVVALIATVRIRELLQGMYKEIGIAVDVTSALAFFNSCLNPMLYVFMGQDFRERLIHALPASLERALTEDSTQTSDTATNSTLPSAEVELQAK
Put plainly: FPR1 cyclic adenosine monophosphate (cAMP) assay. The test is classed as cell-based. Conditions: CHO cells overexpressing human FPR1; forskolin 10 μM; inhibition of cAMP production; HTRF; read-out: hFPR1 cAMP2 EC50. In short, it runs like this:
as §1

Consider `COc1cc(F)c(-c2c(NC(=O)c3ccc(OC(F)F)cc3)c(=O)n(-c3nc(NCC(=O)NC4CC4)ccc3C(F)(F)F)n2C)c(F)c1` [Example 229, N-[2-(6-{[(cyclopropylcarbamoyl)methy]amino}-3-(trifluoromethyl)pyridin-2-yl)-5-(2,6-difluoro-4-methoxyphenyl)-1-methyl-3-oxo-2,3-dihydro-1H-pyrazol-4-yl]-4-(difluoromethoxy)benzamide], for which the EC50 at human FPR2 was 3 nM; on human FPR1, greater than 10000 nM.
In the same order, the values of `COc1cc(O)c(-c2c(NC(=O)c3ccc(OC(F)F)cc3)c(=O)n(-c3nc(NCCO)ccc3C(F)(F)F)n2C)c(F)c1` [Example 230, 4-(difluoromethoxy)-N-[5-(2-fluoro-6-hydroxy-4-methoxyphenyl)-2-{6-[(2-hydroxyethyl)amino]-3-(trifluoromethyl)pyridin-2-yl}-1-methyl-3-oxo-2,3-dihydro-1H-pyrazol-4-yl]benzamide] are 10 nM and greater than 10000 nM.
In the same order, the values of `COc1cc(F)c(-c2c(NC(=O)c3ccc(OC(F)F)cc3)c(=O)n(-c3nc(NC4(CO)CC4)ccc3C(F)(F)F)n2C)c(F)c1` [Example 231, N-[5-(2,6-difluoro-4-methoxyphenyl)-2-(6-{[1-(hydroxymethyl)cyclopropyl]amino}-3-(trifluoromethyl)pyridin-2-yl)-1-methyl-3-oxo-2,3-dihydro-1H-pyrazol-4-yl]-4-(difluoromethoxy)benzamide] are 5 nM and greater than 10000 nM.
In the case of `CNC(=O)[C@H](C)Nc1ccc(C(F)(F)F)c(-n2c(=O)c(NC(=O)c3ccc(OC(F)F)cc3)c(-c3c(F)cc(OC)cc3F)n2C)n1` [Example 232, N-[5-(2,6-difluoro-4-methoxyphenyl)-1-methyl-2-(6-{[(1S)-1-(methylcarbamoyl)ethyl]amino}-3-(trifluoromethyl)pyridin-2-yl)-3-oxo-2,3-dihydro-1H-pyrazol-4-yl]-4-(difluoromethoxy)benzamide], the EC50 was 5 nM on human FPR2 and greater than 10000 nM at human FPR1.
As to `CNc1ccc(C(F)(F)F)c(-n2c(=O)c(NC(=O)c3ccc(OC(F)F)cc3)c(-c3c(O)cc(OC)cc3F)n2C)n1` [Example 233, 4-(difluoromethoxy)-N-[5-(2-fluoro-6-hydroxy-4-methoxyphenyl)-1-methyl-2-[6-(methylamino)-3-(trifluoromethyl)pyridin-2-yl]-3-oxo-2,3-dihydro-1H-pyrazol-4-yl]benzamide], the EC50 on human FPR2 was 8 nM; at human FPR1, greater than 10000 nM.
Turning to `COc1cc(F)c(-c2c(NC(=O)c3ccc(OC(F)F)cc3)c(=O)n(-c3nc(Nc4ncn[nH]4)ccc3C(F)(F)F)n2C)c(F)c1` [Example 234, N-[5-(2,6-difluoro-4-methoxyphenyl)-1-methyl-3-oxo-2-{6-[(1H-1,2,4-triazol-5-yl)amino]-3-(trifluoromethyl)pyridin-2-yl}-2,3-dihydro-1H-pyrazol-4-yl]-4-(difluoromethoxy)benzamide], the values for the EC50 on human FPR2 and at human FPR1 were 3 nM and 2900 nM, respectively.
In the same order, the values of `COCCNc1ccc(C(F)(F)F)c(-n2c(=O)c(NC(=O)c3ccc(OC(F)F)cc3)c(-c3c(F)cc(OC)cc3F)n2C)n1` [Example 235, N-[5-(2,6-difluoro-4-methoxyphenyl)-2-{6-[(2-methoxyethyl)amino]-3-(trifluoromethyl)pyridin-2-yl}-1-methyl-3-oxo-2,3-dihydro-1H-pyrazol-4-yl]-4-(difluoromethoxy)benzamide] are 1 nM and greater than 10000 nM.
Take `COc1cc(F)c(-c2c(NC(=O)c3ccc(OC(F)F)cc3)c(=O)n(-c3nc(N[C@H](C)CO)ccc3C(F)(F)F)n2C)c(F)c1` [Example 236, N-[5-(2,6-difluoro-4-methoxyphenyl)-2-(6-{[(2R)-1-hydroxypropan-2-yl]amino}-3-(trifluoromethyl)pyridin-2-yl)-1-methyl-3-oxo-2,3-dihydro-1H-pyrazol-4-yl]-4-(difluoromethoxy)benzamide]: the EC50 at human FPR2 is 9 nM; on human FPR1 it was greater than 10000 nM.
In the same order, the values of `COc1cc(F)c(-c2c(NC(=O)c3ccc(OC(F)F)cc3)c(=O)n(-c3nc(N[C@@H](C)CO)ccc3C(F)(F)F)n2C)c(F)c1` [Example 237, N-[5-(2,6-difluoro-4-methoxyphenyl)-2-(6-{[(2S)-1-hydroxypropan-2-yl]amino}-3-(trifluoromethyl)pyridin-2-yl)-1-methyl-3-oxo-2,3-dihydro-1H-pyrazol-4-yl]-4-(difluoromethoxy)benzamide] are 1 nM and greater than 5000 nM.
For the molecule `CNC(=O)CNc1ccc(C(F)(F)F)c(-n2c(=O)c(NC(=O)c3ccc(OC(F)F)cc3)c(-c3c(F)cc(OC)cc3F)n2C)n1` [Example 238, N-[5-(2,6-difluoro-4-methoxyphenyl)-1-methyl-2-(6-{[(methylcarbamoyl)methyl]amino}-3-(trifluoromethyl)pyridin-2-yl)-3-oxo-2,3-dihydro-1H-pyrazol-4-yl]-4-(difluoromethoxy)benzamide], the EC50 at human FPR2 was 3 nM; at human FPR1 it was greater than 10000 nM.
In the case of `COc1cc(F)c(-c2c(NC(=O)c3ccc(OC(F)F)cc3)c(=O)n(-c3nc(N4CCN(CC(F)(F)F)CC4)ccc3Cl)n2C)c(F)c1` [Example 239, N-(2-{3-chloro-6-[4-(2,2,2-trifluoroethyl)piperazin-1-yl]pyridin-2-yl}-5-(2,6-difluoro-4-methoxyphenyl)-1-methyl-3-oxo-2,3-dihydro-1H-pyrazol-4-yl)-4-(difluoromethoxy)benzamide], the EC50 amounted to 5 nM on human FPR2 and 2700 nM at human FPR1.
In the same order, the values of `COc1cc(F)c(-c2c(NC(=O)c3ccc(OC(F)F)cc3)c(=O)n(-c3nc(N4CCN(CC(F)F)CC4)ccc3Cl)n2C)c(F)c1` [Example 240, N-(2-{3-chloro-6-[4-(2,2-difluoroethyl)piperazin-1-yl]pyridin-2-yl}-5-(2,6-difluoro-4-methoxyphenyl)-1-methyl-3-oxo-2,3-dihydro-1H-pyrazol-4-yl)-4-(difluoromethoxy)benzamide] are 2 nM and 1300 nM.
For `COc1cc(F)c(-c2c(NC(=O)c3ccc(OC(F)F)cc3)c(=O)n(-c3nc(N(C)S(C)(=O)=O)ccc3C(F)(F)F)n2C)c(F)c1` [Example 241, N-[5-(2,6-difluoro-4-methoxyphenyl)-1-methyl-2-[6-(N-methylmethanesulfonamido)-3-(trifluoromethyl)pyridin-2-yl]-3-oxo-2,3-dihydro-1H-pyrazol-4-yl]-4-(difluoromethoxy)benzamide], in that order: 2 nM and greater than 10000 nM.
On to `COc1cc(F)c(-c2c(NC(=O)c3ccc(OC(F)F)cc3)c(=O)n(-c3nc(Cl)ccc3Cl)n2C)c(F)c1` [Example 242, N-[2-(3,6-dichloropyridin-2-yl)-5-(2,6-difluoro-4-methoxyphenyl)-1-methyl-3-oxo-2,3-dihydro-1H-pyrazol-4-yl]-4-(difluoromethoxy)benzamide], for which the results for the EC50 at human FPR2 and at human FPR1 were 20 nM and greater than 10000 nM, respectively.
For `COc1cc(F)c(-c2c(NC(=O)c3ccc(OC(F)F)cc3)c(=O)n(-c3nc(N[C@H](C)C4CC4)ccc3C(F)(F)F)n2C)c(F)c1` [Example 243, N-[2-(6-{[(1R)-1-cyclopropylethyl]amino}-3-(trifluoromethyl)pyridin-2-yl)-5-(2,6-difluoro-4-methoxyphenyl)-1-methyl-3-oxo-2,3-dihydro-1H-pyrazol-4-yl]-4-(difluoromethoxy)benzamide], the EC50 on human FPR2 was 6 nM; on human FPR1, greater than 10000 nM.
